Measured values reported in ChEMBL document CHEMBL3885861, “Open TG-GATES”.

Species on record: Rattus norvegicus
Assay: Open TG-GATES - Regimen: Daily Repeat
Format: toxicity, organism-based, Sprague-Dawley
Set-up: regimen Daily Repeat, gender Male, age 6 weeks
Conditions: in vivo, po, 0 mg/kg, route gavage, dose level Control; for APTT / Bas / Eos / Fbg / Hb / Ht / Lym / MCH / MCHC / MCV / Mono / Neu / PT / Plat / RBC / Ret / WBC: tissue Blood; for KIDNEY_L / KIDNEY_R / KIDNEY_TOTAL: tissue Kidney; for LIVER: tissue Liver; for ALP / ALT / AST / BUN / CRE / Ca / Cl / DBIL / GLC / IP / K / LDH / Na / PL / RALB / TBIL / TC / TG / TP / gamma-GTP: tissue Plasma

COC(=O)C1=C(C)NC(C)=C(C(=O)OC)C1c1ccccc1[N+](=O)[O-] [NIFEDIPINE]
TERMINAL_BW (72 h, time 3 day): 227.8 g
APTT (72 h, time 3 day): 16.7 s
Bas (72 h, time 3 day): 0.4%
Eos (72 h, time 3 day): 1%
Fbg (72 h, time 3 day): 313.6 mg/dL
Hb (72 h, time 3 day): 13.4 g/dL
Ht (72 h, time 3 day): 41.3%
Lym (72 h, time 3 day): 80.2%
MCH (72 h, time 3 day): 20.8 pg
MCHC (72 h, time 3 day): 32.5%
MCV (72 h, time 3 day): 64.2 fL
Mono (72 h, time 3 day): 3.2%
Neu (72 h, time 3 day): 14%
PT (72 h, time 3 day): 14.5 s
Plat (72 h, time 3 day): 122.9 x10_4/uL
RBC (72 h, time 3 day): 643.8 x10_4/ul
Ret (72 h, time 3 day): 7.5%
WBC (72 h, time 3 day): 94.6 x10_2/uL
KIDNEY_L (72 h, time 3 day): 1 g
KIDNEY_R (72 h, time 3 day): 1 g
KIDNEY_TOTAL (72 h, time 3 day): 2 g
LIVER (72 h, time 3 day): 10.4 g
ALP (72 h, time 3 day): 1654.8 IU/L
ALT (72 h, time 3 day): 47.6 IU/L
AST (72 h, time 3 day): 71.4 IU/L
BUN (72 h, time 3 day): 14 mg/dL
CRE (72 h, time 3 day): 0.2 mg/dL
Ca (72 h, time 3 day): 11.1 mg/dL
Cl (72 h, time 3 day): 106 meq/L
DBIL (72 h, time 3 day): 0.014 mg/dL
GLC (72 h, time 3 day): 179.2 mg/dL
IP (72 h, time 3 day): 7.7 mg/dL
K (72 h, time 3 day): 4.2 meq/L
LDH (72 h, time 3 day): 85.4 IU/L
Na (72 h, time 3 day): 144.8 meq/L
PL (72 h, time 3 day): 162 mg/dL
RALB (72 h, time 3 day): 2.7 g/dL
TBIL (72 h, time 3 day): 0.028 mg/dL
TC (72 h, time 3 day): 83.8 mg/dL
TG (72 h, time 3 day): 109.2 mg/dL
TP (72 h, time 3 day): 5.8 g/dL
gamma-GTP (72 h, time 3 day): 1 IU/L
TERMINAL_BW ([…], time 7 day): 262.8 g
TERMINAL_BW ([…], time 14 day): 320 g
TERMINAL_BW ([…], time 28 day): 416 g
APTT ([…], time 7 day): 16.1 s
Bas ([…], time 7 day): 0.4%
Eos ([…], time 7 day): 1.4%
Fbg ([…], time 7 day): 286.6 mg/dL
Hb ([…], time 7 day): 13.7 g/dL
Ht ([…], time 7 day): 42%
Lym ([…], time 7 day): 75.8%
MCH ([…], time 7 day): 21 pg
MCHC ([…], time 7 day): 32.7%
MCV ([…], time 7 day): 64.1 fL
Mono ([…], time 7 day): 3%
Neu ([…], time 7 day): 18.2%
PT ([…], time 7 day): 14.2 s
Plat ([…], time 7 day): 133.6 x10_4/uL
RBC ([…], time 7 day): 656.4 x10_4/ul
Ret ([…], time 7 day): 5.7%
WBC ([…], time 7 day): 100.3 x10_2/uL
APTT ([…], time 14 day): 18.1 s
Bas ([…], time 14 day): 0%
Eos ([…], time 14 day): 1%
Fbg ([…], time 14 day): 320.8 mg/dL
Hb ([…], time 14 day): 14.8 g/dL
Ht ([…], time 14 day): 44.1%
Lym ([…], time 14 day): 79.2%
MCH ([…], time 14 day): 20.6 pg
MCHC ([…], time 14 day): 33.5%
MCV ([…], time 14 day): 61.3 fL
Mono ([…], time 14 day): 3%
Neu ([…], time 14 day): 15.6%
PT ([…], time 14 day): 14.2 s
Plat ([…], time 14 day): 117.8 x10_4/uL
RBC ([…], time 14 day): 720.2 x10_4/ul
Ret ([…], time 14 day): 4.2%
WBC ([…], time 14 day): 101 x10_2/uL
APTT ([…], time 28 day): 16.7 s
Bas ([…], time 28 day): 0.4%
Eos ([…], time 28 day): 1%
Fbg ([…], time 28 day): 313.6 mg/dL
Hb ([…], time 28 day): 13.4 g/dL
Ht ([…], time 28 day): 41.3%
Lym ([…], time 28 day): 80.2%
MCH ([…], time 28 day): 20.8 pg
MCHC ([…], time 28 day): 32.5%
MCV ([…], time 28 day): 64.2 fL
Mono ([…], time 28 day): 3.2%
Neu ([…], time 28 day): 14%
PT ([…], time 28 day): 14.5 s
Plat ([…], time 28 day): 122.9 x10_4/uL
RBC ([…], time 28 day): 643.8 x10_4/ul
Ret ([…], time 28 day): 7.5%
WBC ([…], time 28 day): 94.6 x10_2/uL
KIDNEY_L ([…], time 7 day): 1 g
KIDNEY_R ([…], time 7 day): 1 g
KIDNEY_TOTAL ([…], time 7 day): 2.1 g
KIDNEY_L ([…], time 14 day): 1.2 g
KIDNEY_R ([…], time 14 day): 1.2 g
KIDNEY_TOTAL ([…], time 14 day): 2.5 g
KIDNEY_L ([…], time 28 day): 1.4 g
KIDNEY_R ([…], time 28 day): 1.4 g
KIDNEY_TOTAL ([…], time 28 day): 2.7 g
LIVER ([…], time 7 day): 12.1 g
LIVER ([…], time 14 day): 13.8 g
LIVER ([…], time 28 day): 17.4 g
ALP ([…], time 7 day): 1580.4 IU/L
ALT ([…], time 7 day): 42.6 IU/L
AST ([…], time 7 day): 68.6 IU/L
BUN ([…], time 7 day): 15.4 mg/dL
CRE ([…], time 7 day): 0.2 mg/dL
Ca ([…], time 7 day): 11 mg/dL
Cl ([…], time 7 day): 106.4 meq/L
DBIL ([…], time 7 day): 0.014 mg/dL
GLC ([…], time 7 day): 183.6 mg/dL
IP ([…], time 7 day): 7.4 mg/dL
K ([…], time 7 day): 4 meq/L
LDH ([…], time 7 day): 98.2 IU/L
Na ([…], time 7 day): 145.2 meq/L
PL ([…], time 7 day): 159.2 mg/dL
RALB ([…], time 7 day): 2.7 g/dL
TBIL ([…], time 7 day): 0.026 mg/dL
TC ([…], time 7 day): 82.4 mg/dL
TG ([…], time 7 day): 111.8 mg/dL
TP ([…], time 7 day): 5.9 g/dL
gamma-GTP ([…], time 7 day): 1 IU/L
ALP ([…], time 14 day): 1854.8 IU/L
ALT ([…], time 14 day): 41.8 IU/L
AST ([…], time 14 day): 65 IU/L
BUN ([…], time 14 day): 16 mg/dL
CRE ([…], time 14 day): 0.2 mg/dL
Cl ([…], time 14 day): 105.6 meq/L
DBIL ([…], time 14 day): 0.012 mg/dL
GLC ([…], time 14 day): 184 mg/dL
IP ([…], time 14 day): 7.3 mg/dL
K ([…], time 14 day): 4 meq/L
LDH ([…], time 14 day): 57.8 IU/L
Na ([…], time 14 day): 144.2 meq/L
PL ([…], time 14 day): 158.8 mg/dL
RALB ([…], time 14 day): 2.8 g/dL
TBIL ([…], time 14 day): 0.024 mg/dL
TC ([…], time 14 day): 75.4 mg/dL
TG ([…], time 14 day): 150.8 mg/dL
TP ([…], time 14 day): 6 g/dL
gamma-GTP ([…], time 14 day): 1 IU/L
ALP ([…], time 28 day): 1068.6 IU/L
ALT ([…], time 28 day): 36.2 IU/L
AST ([…], time 28 day): 63 IU/L
BUN ([…], time 28 day): 17.4 mg/dL
CRE ([…], time 28 day): 0.3 mg/dL
Ca ([…], time 28 day): 10.7 mg/dL
Cl ([…], time 28 day): 104.4 meq/L
DBIL ([…], time 28 day): 0.01 mg/dL
GLC ([…], time 28 day): 192.8 mg/dL
IP ([…], time 28 day): 6.1 mg/dL
K ([…], time 28 day): 3.9 meq/L
LDH ([…], time 28 day): 66 IU/L
Na ([…], time 28 day): 143.8 meq/L
PL ([…], time 28 day): 161.6 mg/dL
RALB ([…], time 28 day): 2.8 g/dL
TBIL ([…], time 28 day): 0.026 mg/dL
TC ([…], time 28 day): 75 mg/dL
TG ([…], time 28 day): 175.2 mg/dL
TP ([…], time 28 day): 6.3 g/dL
